Values quoted from earlier work as cited in paper PMC9669016, “First-in-human phase Ia study of the PI3Kα inhibitor CYH33 in patients with solid tumors” (Nature Communications, 2022).
Where “and” joins values, the source holds several entries; their conditions need not be identical. Identical values can stand only once.

Key:
[1] = tested on: KYSE410, KYSE510, EC104, EC063, EC074 xenograft models; set-up: method as in Investigator's Brochure (IB) 12; conditions: 12.5 mg/kg; 9 values for 5 models, model column not assignable; ref Investigator's Brochure (IB) 12; listed as BYL-719; cited from earlier work
[2] = tested on: patients with PIK3CA-mutated HR+/HER2– breast cancer / PIK3CA-altered solid tumors; conditions: cited from earlier work

## Cc1nc(NC(=O)N2CCC[C@H]2C(N)=O)sc1-c1ccnc(C(C)(C)C(F)(F)F)c1 [alpelisib]
[1]
  T/C% (tumor/control ratio): 29.09% and 47.62%
[2]
  frequency of diarrhea: 57.7%
  incidence of rash: 64.0%
[2]; phase III SOLAR-1, alpelisib plus fulvestrant vs fulvestrant plus placebo, advanced PIK3CA-mutated HR+/HER2– breast cancer
  improvement in median overall survival: 7.9 month
[2]; within the first 4–8 weeks of treatment
  incidence of rash with prophylactic anti-rash medication: 24.6%
